This is an account of results in US4686308A, “Novel physiologically active substance MH435” (Microbial Chemistry Research Foundation, priority 1985, dated 1987).

One data set deals with Ki-NRK cells. Kind of data set: Effects on cultured carcinoma cells: Ki-NRK. Format: cell-based. Conditions: 72 h, 3 days, 37° C., cell count. The procedure: (§1) IC50 was measured by inoculating the respective cells in dished (3-5×10^4 cells/dish), incubating the cells for 1 day (at 37° C.; CO2 concentration, 5%), then adding the substance MH435-A, further incubating the resultant mixture for 3 days under the same conditions and finally counting the number of the cells.

The next data set relates to IMC carcinoma cells. The experiment in a line: Effects on cultured carcinoma cells: IMC carcinoma. The settings on record: 72 h, 3 days, 37° C., cell count. Format: cell-based. The method, then: as §1
The subject of data set [1] is ts Src-NRK (at 33° C.) carcinoma form. Kind of data set: Effects on cultured carcinoma cells: ts Src-NRK (at 33° C.) carcinoma form. Format: cell-based. Conditions: 72 h, 3 days, cell count.
For another data set, the system named is L1210 leukemia cells. The experiment in a line: Effects on cultured carcinoma cells: L1210. Conditions: Mus musculus, 72 h, 3 days, 37° C., cell count. Format: cell-based. The method, then: as §1
Data set [2] concerns the target T1, tyrosine specific protein kinase in the epidermal growth factor receptor (Homo sapiens, UniProt P00533).
T1 construct: membrane fraction of human epithelial carcinoma cells A-431; endogenous in cells; host or cells: A-431 human epithelial carcinoma cells, membrane fraction
The experiment in a line: Inhibitory activity against tyrosine specific protein kinase (epidermal growth factor receptor kinase), A-431 membrane fraction. Format: biochemical. Conditions: EGF, 0° C., 30 min, read-out: 50% inhibitory concentration (tyrosine specific protein kinase) (converted). The method, then:
In the above processes of incubation and purification, MH435 was traced by detecting the inhibition activity thereof by measuring the tyrosine specific protein kinase in test samples in accordance with the following method.
[Measurement of tyrosine specific protein kinase activity]
The measurement of tyrosin specific protein kinase activity was carried out by modifying the method of measuring enzyme activity described by G. Carpenter et al. in The Journal of Biological Chemistry, 254, 4874-4891 (1979) using the membrane fraction of human epithelial carcinoma cells A-431 with respect to the tyrosine specific protein kinase in the epidermal growth factor receptor. […] Then, ^32 P adsorbed on the filter paper was measured by counting the radioactivity (a). At the same time, count (b) was measured for the reaction product which was obtained by the same reaction and treated in the same manner as above except that the test sample was excluded, while counts (a') and (b') were measured for the reaction products in which the membrane fractions were further excluded, respectively. The inhibitory ratio with respect to the epidermal growth factor receptor kinase was then calculated from the equation

A further data set in a line: Acute toxicity (LD50). The settings on record: mouse, in vivo, ip.
Another data set deals with B. Subtilis PCI 219. Kind of data set: Antimicrobial activity, agar dilution method. It counts as cell-based. The settings on record: Bacillus subtilis, Muller-Hinton agar dilution. An excerpt: (§2) Minimum inhibitory concentrations (MIC) of the substance against various bacteria determined by the agar dilution method using Muller-Hinton culture medium are shown in the following Table 4.
For orientation: In agar dilution, organisms are placed on agar that contains the substance at set levels.

The test system of another data set is Sal. typhi T-63. The experiment in a line: Antimicrobial activity, agar dilution method. The settings on record: Salmonella enterica. It counts as cell-based.
Description: as §2

For the next data set, the system named is Coryn. bovis 1810. Kind of data set: Antimicrobial activity, agar dilution method. It counts as cell-based. Conditions: Corynebacterium bovis, Muller-Hinton agar dilution.
Description: as §2

In a further data set the test system is S. aureus MS8710. Kind of data set: Antimicrobial activity, agar dilution method. It counts as cell-based. The settings on record: Staphylococcus aureus, Muller-Hinton agar dilution.
Description: as §2

The test system of the next data set is S. aureus Smith. Kind of data set: Antimicrobial activity, agar dilution method. It counts as cell-based. Conditions: Staphylococcus aureus, Muller-Hinton agar dilution.
Description: as §2

Another data set has as its system M. lysodelkticus IFO 333. The experiment in a line: Antimicrobial activity, agar dilution method. Format: cell-based. Conditions: Muller-Hinton agar dilution.
Description: as §2

Another data set has as its system Serr. marcessens. Kind of data set: Antimicrobial activity, agar dilution method. Format: cell-based. Conditions: Muller-Hinton agar dilution.
Description: as §2

The next data set concerns S. aureus MS9610. Kind of data set: Antimicrobial activity, agar dilution method. The settings on record: Staphylococcus aureus, Muller-Hinton agar dilution. Format: cell-based.
Description: as §2

The test system of a further data set is E. coli NIHJ. The experiment in a line: Antimicrobial activity, agar dilution method. The settings on record: Escherichia coli, Muller-Hinton agar dilution. Format: cell-based.
Description: as §2

A further data set concerns Pseu. aeruginosa A3. Kind of data set: Antimicrobial activity, agar dilution method. Format: cell-based. Conditions: Pseudomonas aeruginosa, Muller-Hinton agar dilution.
Description: as §2

A further data set concerns B. cereus ATCC 10702. The experiment in a line: Antimicrobial activity, agar dilution method. It counts as cell-based. Conditions: Bacillus cereus, ATCC10702, Muller-Hinton agar dilution.
Description: as §2

In another data set the test system is S. aureus 209 P. The experiment in a line: Antimicrobial activity, agar dilution method. Conditions: Staphylococcus aureus, Muller-Hinton agar dilution. It counts as cell-based.
Description: as §2

A further data set has as its system K. pneumoniae PCI 602. Kind of data set: Antimicrobial activity, agar dilution method. Format: cell-based. The settings on record: Klebsiella pneumoniae, PCI602, Muller-Hinton agar dilution.
Description: as §2

The subject of the next data set is Prot. vulgaris OX19. Kind of data set: Antimicrobial activity, agar dilution method. Conditions: Proteus vulgaris, Muller-Hinton agar dilution. It counts as cell-based.
Description: as §2

In data set [3] the test system is ts Src-NRK (at 39° C.) normal form. Kind of data set: Effects on cultured carcinoma cells: ts Src-NRK (at 39° C.) normal form. It counts as cell-based. Conditions: 72 h, 3 days, cell count.
The next data set relates to A-431 cells. The experiment in a line: Effects on cultured carcinoma cells: A-431. It counts as cell-based. Conditions: Homo sapiens, 72 h, 3 days, 37° C., cell count. The method, then:
as §1

In brackets after ≈: the same amount, converted by molar mass.

T1 sequence (P00533 25-1210): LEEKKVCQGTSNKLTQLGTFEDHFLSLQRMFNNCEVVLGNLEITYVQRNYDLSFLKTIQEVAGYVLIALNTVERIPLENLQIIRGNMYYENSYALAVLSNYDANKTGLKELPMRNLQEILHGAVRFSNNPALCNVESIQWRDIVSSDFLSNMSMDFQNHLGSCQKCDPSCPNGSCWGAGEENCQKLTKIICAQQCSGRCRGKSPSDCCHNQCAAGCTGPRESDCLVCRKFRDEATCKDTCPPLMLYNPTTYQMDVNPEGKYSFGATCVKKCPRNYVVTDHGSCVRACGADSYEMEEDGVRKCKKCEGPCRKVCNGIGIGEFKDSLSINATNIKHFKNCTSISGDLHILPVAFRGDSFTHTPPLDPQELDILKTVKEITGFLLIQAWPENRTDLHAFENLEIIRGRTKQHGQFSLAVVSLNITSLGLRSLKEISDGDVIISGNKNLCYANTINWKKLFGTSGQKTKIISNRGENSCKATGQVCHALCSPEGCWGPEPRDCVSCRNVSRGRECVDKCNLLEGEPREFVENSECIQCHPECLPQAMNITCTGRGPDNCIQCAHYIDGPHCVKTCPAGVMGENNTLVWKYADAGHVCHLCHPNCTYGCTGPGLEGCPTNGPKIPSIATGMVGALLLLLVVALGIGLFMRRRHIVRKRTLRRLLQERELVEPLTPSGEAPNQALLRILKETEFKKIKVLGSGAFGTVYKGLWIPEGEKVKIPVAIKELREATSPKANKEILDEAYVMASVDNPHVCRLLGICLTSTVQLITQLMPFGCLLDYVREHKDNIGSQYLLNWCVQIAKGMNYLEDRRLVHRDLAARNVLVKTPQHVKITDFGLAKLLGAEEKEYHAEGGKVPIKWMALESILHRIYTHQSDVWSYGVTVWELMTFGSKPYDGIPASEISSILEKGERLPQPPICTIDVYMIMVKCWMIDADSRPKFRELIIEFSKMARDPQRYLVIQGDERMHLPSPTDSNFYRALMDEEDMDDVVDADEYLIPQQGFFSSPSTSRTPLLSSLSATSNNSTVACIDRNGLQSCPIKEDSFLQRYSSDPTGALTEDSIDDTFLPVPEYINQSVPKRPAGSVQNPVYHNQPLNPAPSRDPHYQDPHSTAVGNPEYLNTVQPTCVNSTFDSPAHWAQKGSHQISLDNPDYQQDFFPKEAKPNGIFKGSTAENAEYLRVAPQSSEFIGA

In the case of `O=CNC=Cc1cc(O)ccc1O` [MH435-A], the IC50 in the data set on Ki-NRK cells is 1.7 µg/mL (≈ 9.49 µM); in the data set with IMC carcinoma cells, 3.01 µg/mL (≈ 16.8 µM); in data set [1], 2 µg/mL (≈ 11.2 µM); with L1210 leukemia cells, 2.41 µg/mL (≈ 13.5 µM); in data set [2], 3.07 µM; in data set [3], 3.6 µg/mL (≈ 20.1 µM). The compound also displayed an IC50 with A-431 cells of 3.6 µg/mL (≈ 20.1 µM). Besides, in “Acute toxicity (LD50)”, the LD50 (usually the dose at which mortality reaches 50%) was at least 200 mg/kg. Besides, the MIC – broadly, the lowest concentration that inhibits growth of the organism – came out at 100 µg/mL (≈ 558 µM) against B. Subtilis PCI 219; 100 µg/mL (≈ 558 µM) against Sal. typhi T-63; 100 µg/mL (≈ 558 µM) against Coryn. bovis 1810; 50 µg/mL (≈ 279 µM) against S. aureus MS8710; 25 µg/mL (≈ 140 µM) in the data set with S. aureus Smith; 50 µg/mL (≈ 279 µM) in the data set with M. lysodelkticus IFO 333. Moreover, the MIC in the data set with Serr. marcessens is 100 µg/mL (≈ 558 µM); against S. aureus MS9610, 50 µg/mL (≈ 279 µM); against E. coli NIHJ it was 100 µg/mL (≈ 558 µM); against Pseu. aeruginosa A3, 25 µg/mL (≈ 140 µM); against B. cereus ATCC 10702, 100 µg/mL (≈ 558 µM); against S. aureus 209 P, 50 µg/mL (≈ 279 µM). Moreover, the MIC against K. pneumoniae PCI 602 and in the data set with Prot. vulgaris OX19 was 100 µg/mL (≈ 558 µM) throughout.

Regarding `O=CNCCc1cc(O)ccc1O` [MH435-B], the IC50 in [2] was 33.1 µM. The MIC was 100 µg/mL (≈ 552 µM) with B. Subtilis PCI 219; 100 µg/mL (≈ 552 µM) with Sal. typhi T-63; 100 µg/mL (≈ 552 µM) in the data set on Coryn. bovis 1810; 50 µg/mL (≈ 276 µM) in the data set with S. aureus MS8710; 50 µg/mL (≈ 276 µM) against S. aureus Smith; 50 µg/mL (≈ 276 µM) against M. lysodelkticus IFO 333. For the same compound, the minimum inhibitory concentration (MIC) came out at 100 µg/mL (≈ 552 µM) with Serr. marcessens; 50 µg/mL (≈ 276 µM) with S. aureus MS9610; 100 µg/mL (≈ 552 µM) in the data set with E. coli NIHJ; 50 µg/mL (≈ 276 µM) in the data set on Pseu. aeruginosa A3; 100 µg/mL (≈ 552 µM) in the data set with B. cereus ATCC 10702; 50 µg/mL (≈ 276 µM) with S. aureus 209 P. The values for the MIC in the data set with K. pneumoniae PCI 602 and in the data set with Prot. vulgaris OX19 were 100 µg/mL (≈ 552 µM) and 50 µg/mL (≈ 276 µM), respectively.
